PMC9506414, “Novel 2,6,9-Trisubstituted Purines as Potent CDK Inhibitors Alleviating Trastuzumab-Resistance of HER2-Positive Breast Cancers” (Pharmaceuticals, 2022)

Tests used:
Experiment in all cases: Kinome-wide inhibition profiling
Type in all cases: biochemical
ACVR1B = molecular target: T1, ACVR1B (Homo sapiens, UniProt P36896)
T1 construct: purchased Reaction Biology Corp
Experimental: (§1) In vitro CDK12/cyclinK assays for all compounds and in vitro kinome-wide inhibition profiling of 30d at 10 μM were performed by a CRO company (Reaction Biology Corp., San Diego, CA, USA).

AKT3 = molecular target: T2, AKT3 (Homo sapiens, UniProt Q9Y243)
T2 construct: purchased Reaction Biology Corp
Experimental: as §1

BTK = molecular target: T3, BTK (Homo sapiens, UniProt Q06187)
T3 construct: purchased Reaction Biology Corp
Experimental: as §1

CAMK1b = molecular target: T4, CAMK1b (Homo sapiens, UniProt Q6P2M8)
T4 construct: purchased Reaction Biology Corp
Experimental: as §1

CAMK1d = molecular target: T5, CAMK1d (Homo sapiens, UniProt Q8IU85)
T5 construct: purchased Reaction Biology Corp
Experimental: as §1

CAMK2b = molecular target: T6, CAMK2b (Homo sapiens, UniProt Q13554)
T6 construct: purchased Reaction Biology Corp
T6 sequence (Q13554 whole entry): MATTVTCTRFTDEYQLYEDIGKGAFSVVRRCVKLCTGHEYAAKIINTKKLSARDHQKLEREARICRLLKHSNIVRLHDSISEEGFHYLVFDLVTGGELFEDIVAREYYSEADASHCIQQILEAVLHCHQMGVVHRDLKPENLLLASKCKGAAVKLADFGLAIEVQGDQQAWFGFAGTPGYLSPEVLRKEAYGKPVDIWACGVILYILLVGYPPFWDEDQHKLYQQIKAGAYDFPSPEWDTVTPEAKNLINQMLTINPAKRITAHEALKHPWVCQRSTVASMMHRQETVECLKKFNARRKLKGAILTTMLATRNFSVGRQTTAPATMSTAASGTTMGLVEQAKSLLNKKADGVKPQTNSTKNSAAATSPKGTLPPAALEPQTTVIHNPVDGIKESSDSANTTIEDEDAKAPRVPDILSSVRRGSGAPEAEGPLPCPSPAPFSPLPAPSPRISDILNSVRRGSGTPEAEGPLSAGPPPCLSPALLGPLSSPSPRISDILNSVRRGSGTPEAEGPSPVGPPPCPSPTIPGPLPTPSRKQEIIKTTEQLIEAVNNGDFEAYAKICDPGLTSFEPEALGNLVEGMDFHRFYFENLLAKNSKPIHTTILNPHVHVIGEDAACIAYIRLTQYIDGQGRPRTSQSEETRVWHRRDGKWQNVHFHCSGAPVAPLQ
Experimental: as §1

CDK16 = molecular target: T7, CDK16 (Homo sapiens, UniProt Q00536)
T7 construct: purchased Reaction Biology Corp
Experimental: as §1

CDK4/cyclinD3 = molecular target: T8, CDK4/cyclinD3 (Homo sapiens, UniProt P11802)
T8 construct: purchased Reaction Biology Corp
Experimental: as §1

CSNK1D = molecular target: T9, CSNK1D (Homo sapiens, UniProt P48730)
T9 construct: purchased Reaction Biology Corp
Experimental: as §1

CSNK1E = molecular target: T10, CSNK1E (Homo sapiens, UniProt P49674)
T10 construct: purchased Reaction Biology Corp
Experimental: as §1

CSNK2A2 = molecular target: T11, CSNK2A2 (Homo sapiens, UniProt P19784)
T11 construct: purchased Reaction Biology Corp
Experimental: as §1

DCAMKL2 = molecular target: T12, DCAMKL2 (Homo sapiens, UniProt Q8N568)
T12 construct: purchased Reaction Biology Corp
Experimental: as §1

EPHB2 = molecular target: T13, EPHB2 (Homo sapiens, UniProt P29323)
T13 construct: purchased Reaction Biology Corp
T13 sequence (P29323 19-1055): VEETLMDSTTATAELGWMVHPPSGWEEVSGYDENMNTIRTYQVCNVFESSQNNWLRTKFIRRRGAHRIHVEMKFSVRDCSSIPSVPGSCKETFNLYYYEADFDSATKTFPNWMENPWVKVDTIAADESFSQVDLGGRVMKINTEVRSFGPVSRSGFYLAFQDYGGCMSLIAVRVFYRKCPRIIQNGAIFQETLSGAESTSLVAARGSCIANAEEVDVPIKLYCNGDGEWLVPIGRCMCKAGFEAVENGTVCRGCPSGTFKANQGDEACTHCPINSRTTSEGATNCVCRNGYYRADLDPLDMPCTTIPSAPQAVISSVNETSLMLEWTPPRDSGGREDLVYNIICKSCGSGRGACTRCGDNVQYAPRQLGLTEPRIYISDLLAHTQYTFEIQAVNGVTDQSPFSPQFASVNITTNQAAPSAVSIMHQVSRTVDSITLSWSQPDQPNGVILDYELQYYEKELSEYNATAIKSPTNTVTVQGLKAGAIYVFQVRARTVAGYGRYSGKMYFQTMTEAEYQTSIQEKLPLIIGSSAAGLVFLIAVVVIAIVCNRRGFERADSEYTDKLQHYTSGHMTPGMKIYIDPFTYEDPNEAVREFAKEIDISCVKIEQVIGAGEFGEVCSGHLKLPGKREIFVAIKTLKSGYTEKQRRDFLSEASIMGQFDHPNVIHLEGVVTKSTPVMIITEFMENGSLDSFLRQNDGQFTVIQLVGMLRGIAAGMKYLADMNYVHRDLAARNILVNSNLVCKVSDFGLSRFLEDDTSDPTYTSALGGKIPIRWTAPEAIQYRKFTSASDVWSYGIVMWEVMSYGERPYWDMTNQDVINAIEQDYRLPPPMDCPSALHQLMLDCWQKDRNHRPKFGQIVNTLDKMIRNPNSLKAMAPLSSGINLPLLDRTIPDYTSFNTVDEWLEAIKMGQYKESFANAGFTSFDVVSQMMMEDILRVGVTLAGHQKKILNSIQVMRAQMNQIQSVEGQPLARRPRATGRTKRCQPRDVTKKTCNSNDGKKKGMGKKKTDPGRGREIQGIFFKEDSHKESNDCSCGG
Experimental: as §1

ERBB4 = molecular target: T14, ERBB4 (Homo sapiens, UniProt Q15303)
T14 construct: purchased Reaction Biology Corp
Experimental: as §1

ERK7 = molecular target: T15, ERK7 (Homo sapiens, UniProt Q8TD08)
T15 construct: purchased Reaction Biology Corp
T15 sequence (Q8TD08 whole entry): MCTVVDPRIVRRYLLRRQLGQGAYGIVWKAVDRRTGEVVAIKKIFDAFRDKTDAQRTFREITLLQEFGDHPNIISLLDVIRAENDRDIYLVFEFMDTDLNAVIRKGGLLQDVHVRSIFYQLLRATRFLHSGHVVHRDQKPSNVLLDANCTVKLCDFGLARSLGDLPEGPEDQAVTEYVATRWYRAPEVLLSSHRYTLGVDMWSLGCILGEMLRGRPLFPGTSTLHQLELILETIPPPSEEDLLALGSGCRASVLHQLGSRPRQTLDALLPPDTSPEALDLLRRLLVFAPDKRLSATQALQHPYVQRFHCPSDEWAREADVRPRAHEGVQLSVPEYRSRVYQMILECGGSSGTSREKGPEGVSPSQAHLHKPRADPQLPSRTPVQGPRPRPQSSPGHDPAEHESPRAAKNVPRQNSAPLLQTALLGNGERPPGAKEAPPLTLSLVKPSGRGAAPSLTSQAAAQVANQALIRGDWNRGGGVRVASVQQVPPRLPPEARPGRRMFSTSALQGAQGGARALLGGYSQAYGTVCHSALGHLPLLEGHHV
Experimental: as §1

FAK = molecular target: T16, FAK (Homo sapiens, UniProt Q05397)
T16 construct: purchased Reaction Biology Corp
Experimental: as §1

FGFR2 = molecular target: T17, FGFR2 (Homo sapiens, UniProt P21802)
T17 construct: purchased Reaction Biology Corp
Experimental: as §1

FGR = molecular target: T18, FGR (Homo sapiens, UniProt P09769)
T18 construct: purchased Reaction Biology Corp
Experimental: as §1

HCK = molecular target: T19, HCK (Homo sapiens, UniProt P08631)
T19 construct: purchased Reaction Biology Corp
T19 sequence (P08631 whole entry): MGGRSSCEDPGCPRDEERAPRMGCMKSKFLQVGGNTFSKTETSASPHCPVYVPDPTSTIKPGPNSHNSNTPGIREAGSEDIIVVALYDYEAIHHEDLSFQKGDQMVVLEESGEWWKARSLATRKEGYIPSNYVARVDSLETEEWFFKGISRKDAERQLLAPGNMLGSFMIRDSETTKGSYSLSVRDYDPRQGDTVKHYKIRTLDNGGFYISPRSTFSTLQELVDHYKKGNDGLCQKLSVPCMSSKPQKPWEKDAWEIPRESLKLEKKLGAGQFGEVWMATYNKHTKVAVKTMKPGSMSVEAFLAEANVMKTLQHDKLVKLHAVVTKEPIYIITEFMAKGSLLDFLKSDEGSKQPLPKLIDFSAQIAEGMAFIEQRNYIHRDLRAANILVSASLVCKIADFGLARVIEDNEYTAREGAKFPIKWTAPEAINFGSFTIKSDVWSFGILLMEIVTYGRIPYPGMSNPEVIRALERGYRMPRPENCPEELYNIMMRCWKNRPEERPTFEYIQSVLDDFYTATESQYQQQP
Experimental: as §1

JAK1 = molecular target: T20, JAK1 (Homo sapiens, UniProt P23458)
T20 construct: purchased Reaction Biology Corp
Experimental: as §1

JAK2 = molecular target: T21, JAK2 (Homo sapiens, UniProt O60674)
T21 construct: purchased Reaction Biology Corp
Experimental: as §1

KSR1 = molecular target: T22, KSR1 (Homo sapiens, UniProt Q8IVT5)
T22 construct: purchased Reaction Biology Corp
Experimental: as §1

KSR2 = molecular target: T23, KSR2 (Homo sapiens, UniProt Q6VAB6)
T23 construct: purchased Reaction Biology Corp
Experimental: as §1

LYN = molecular target: T24, LYN (Homo sapiens, UniProt P07948)
T24 construct: purchased Reaction Biology Corp
Experimental: as §1

MAP4K2 = molecular target: T25, MAP4K2 (Homo sapiens, UniProt Q12851)
T25 construct: purchased Reaction Biology Corp
Experimental: as §1

MARK3 = molecular target: T26, MARK3 (Homo sapiens, UniProt P27448)
T26 construct: purchased Reaction Biology Corp
Experimental: as §1

MAST3 = molecular target: T27, MAST3 (Homo sapiens, UniProt O60307)
T27 construct: purchased Reaction Biology Corp
Experimental: as §1

MASTL = molecular target: T28, MASTL (Homo sapiens, UniProt Q96GX5)
T28 construct: purchased Reaction Biology Corp
T28 sequence (Q96GX5 whole entry): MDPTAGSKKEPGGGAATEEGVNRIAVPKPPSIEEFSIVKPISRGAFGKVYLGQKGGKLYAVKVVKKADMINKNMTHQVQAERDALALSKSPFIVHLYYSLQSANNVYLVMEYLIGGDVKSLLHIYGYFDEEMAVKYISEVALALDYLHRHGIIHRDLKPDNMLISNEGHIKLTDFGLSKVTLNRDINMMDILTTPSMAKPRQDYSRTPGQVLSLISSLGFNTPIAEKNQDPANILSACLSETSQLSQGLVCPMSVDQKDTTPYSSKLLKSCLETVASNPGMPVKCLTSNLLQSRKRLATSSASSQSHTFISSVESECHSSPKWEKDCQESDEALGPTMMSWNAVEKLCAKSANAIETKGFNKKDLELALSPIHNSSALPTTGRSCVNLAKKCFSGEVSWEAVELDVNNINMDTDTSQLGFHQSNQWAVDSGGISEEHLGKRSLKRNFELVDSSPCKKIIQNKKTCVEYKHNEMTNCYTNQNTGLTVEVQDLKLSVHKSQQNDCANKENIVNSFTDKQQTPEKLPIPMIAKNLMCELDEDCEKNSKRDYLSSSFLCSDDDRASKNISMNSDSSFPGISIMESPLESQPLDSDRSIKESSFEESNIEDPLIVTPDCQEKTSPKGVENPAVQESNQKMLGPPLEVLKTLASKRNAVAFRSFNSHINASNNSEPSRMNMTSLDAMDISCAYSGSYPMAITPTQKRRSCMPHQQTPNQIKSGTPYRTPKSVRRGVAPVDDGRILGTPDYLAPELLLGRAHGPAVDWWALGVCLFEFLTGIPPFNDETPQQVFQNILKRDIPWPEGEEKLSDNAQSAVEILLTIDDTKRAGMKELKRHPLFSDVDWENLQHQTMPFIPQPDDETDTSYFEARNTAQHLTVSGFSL
Experimental: as §1

MEK2 = molecular target: T29, MEK2 (Homo sapiens, UniProt P36507)
T29 construct: purchased Reaction Biology Corp
Experimental: as §1

MRCKa = molecular target: T30, MRCKa (Homo sapiens, UniProt Q5VT25)
T30 construct: purchased Reaction Biology Corp
Experimental: as §1

MST1R = molecular target: T31, MST1R (Homo sapiens, UniProt Q04912)
T31 construct: purchased Reaction Biology Corp
Experimental: as §1

MST3 = molecular target: T32, MST3 (Homo sapiens, UniProt Q9Y6E0)
T32 construct: purchased Reaction Biology Corp
Experimental: as §1

NEK11 = molecular target: T33, NEK11 (Homo sapiens, UniProt Q8NG66)
T33 construct: purchased Reaction Biology Corp
Experimental: as §1

NEK3 = molecular target: T34, NEK3 (Homo sapiens, UniProt P51956)
T34 construct: purchased Reaction Biology Corp
Experimental: as §1

NEK9 = molecular target: T35, NEK9 (Homo sapiens, UniProt Q8TD19)
T35 construct: purchased Reaction Biology Corp
Experimental: as §1

P38-beta = molecular target: T36, P38-beta (Homo sapiens, UniProt Q15759)
T36 construct: purchased Reaction Biology Corp
Experimental: as §1

PAK1 = molecular target: T37, PAK1 (Homo sapiens, UniProt Q13153)
T37 construct: purchased Reaction Biology Corp
Experimental: as §1

PAK2 = molecular target: T38, PAK2 (Homo sapiens, UniProt Q13177)
T38 construct: purchased Reaction Biology Corp
Experimental: as §1

PLK2 = molecular target: T39, PLK2 (Homo sapiens, UniProt Q9NYY3)
T39 construct: purchased Reaction Biology Corp
Experimental: as §1

PRKG1b = molecular target: T40, PRKG1b (Homo sapiens, UniProt Q13976)
T40 construct: purchased Reaction Biology Corp
Experimental: as §1

ROCK1 = molecular target: T41, ROCK1 (Homo sapiens, UniProt Q13464)
T41 construct: purchased Reaction Biology Corp
Experimental: as §1

SGK2 = molecular target: T42, SGK2 (Homo sapiens, UniProt Q9HBY8)
T42 construct: purchased Reaction Biology Corp
T42 sequence (Q9HBY8 whole entry): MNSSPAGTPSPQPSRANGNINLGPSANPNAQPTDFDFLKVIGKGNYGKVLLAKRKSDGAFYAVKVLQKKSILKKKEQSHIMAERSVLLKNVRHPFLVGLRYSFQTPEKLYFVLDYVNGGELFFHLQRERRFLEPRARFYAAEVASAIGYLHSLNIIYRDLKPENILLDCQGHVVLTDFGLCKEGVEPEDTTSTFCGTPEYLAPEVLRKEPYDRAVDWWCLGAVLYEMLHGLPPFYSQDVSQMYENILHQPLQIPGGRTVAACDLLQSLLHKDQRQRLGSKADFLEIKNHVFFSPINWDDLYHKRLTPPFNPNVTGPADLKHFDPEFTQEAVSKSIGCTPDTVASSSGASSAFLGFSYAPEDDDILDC
Experimental: as §1

TTBK2 = molecular target: T43, TTBK2 (Homo sapiens, UniProt Q6IQ55)
T43 construct: purchased Reaction Biology Corp
Experimental: as §1

TYRO3 = molecular target: T44, TYRO3 (Homo sapiens, UniProt Q06418)
T44 construct: purchased Reaction Biology Corp
T44 sequence (Q06418 41-890): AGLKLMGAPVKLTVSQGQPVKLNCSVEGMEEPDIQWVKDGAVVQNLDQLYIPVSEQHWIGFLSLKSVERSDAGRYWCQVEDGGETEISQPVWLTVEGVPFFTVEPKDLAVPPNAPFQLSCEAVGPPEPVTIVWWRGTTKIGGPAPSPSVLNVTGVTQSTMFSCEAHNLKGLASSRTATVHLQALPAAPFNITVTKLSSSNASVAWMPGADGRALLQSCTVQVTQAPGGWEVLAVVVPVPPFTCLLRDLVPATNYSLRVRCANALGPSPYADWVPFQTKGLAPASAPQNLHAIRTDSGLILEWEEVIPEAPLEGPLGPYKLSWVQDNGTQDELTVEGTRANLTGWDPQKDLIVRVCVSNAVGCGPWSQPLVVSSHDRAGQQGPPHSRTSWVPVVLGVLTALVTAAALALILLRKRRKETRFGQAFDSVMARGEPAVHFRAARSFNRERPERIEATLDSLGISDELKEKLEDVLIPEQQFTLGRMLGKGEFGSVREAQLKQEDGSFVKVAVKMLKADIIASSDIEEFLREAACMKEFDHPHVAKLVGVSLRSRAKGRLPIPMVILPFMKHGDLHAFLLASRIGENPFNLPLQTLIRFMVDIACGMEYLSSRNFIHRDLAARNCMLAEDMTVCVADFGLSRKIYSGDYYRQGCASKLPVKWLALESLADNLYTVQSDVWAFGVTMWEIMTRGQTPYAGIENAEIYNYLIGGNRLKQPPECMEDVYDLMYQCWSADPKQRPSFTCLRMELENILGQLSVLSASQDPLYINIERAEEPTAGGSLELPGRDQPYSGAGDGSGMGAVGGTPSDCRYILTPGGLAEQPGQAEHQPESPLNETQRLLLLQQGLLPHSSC
Experimental: as §1

Q: With `CCn1cnc2c(NCc3ccc(-c4ccccn4)nc3)nc(-c3ccc(N)nc3)nc21` [Compound 30d, N-([2,2′-Bipyridin]-5-ylmethyl)-2-(6-aminopyridin-3-yl)-9-ethyl-9H-purin-6-amine] as the compound, how does the remaining activity at 10 µM (ACVR1B) read?
A: 132%

Q: What about the remaining activity at 10 µM (AKT3) of the same compound?
A: 96.1%

Q: What about the remaining activity at 10 µM (BTK) of the same compound?
A: 103%

Q: And the remaining activity at 10 µM (CAMK1b)?
A: 66.8%

Q: What about the remaining activity at 10 µM (CAMK1d) of the same compound?
A: 58%

Q: And the remaining activity at 10 µM (CAMK2b)?
A: 65.2%

Q: And the remaining activity at 10 µM (CDK16)?
A: 17.5%

Q: What about the remaining activity at 10 µM (CDK4/cyclinD3) of the same compound?
A: 28.6%

Q: And the remaining activity at 10 µM (CSNK1D)?
A: 10.2%

Q: And the remaining activity at 10 µM (CSNK1E)?
A: 22.9%

Q: And the remaining activity at 10 µM (CSNK2A2)?
A: 91.3%

Q: And the remaining activity at 10 µM (DCAMKL2)?
A: 55%

Q: What about the inhibition at 10 µM (EPHB2) of the same compound?
A: > 95%

Q: And the remaining activity at 10 µM (EPHB2)?
A: 2.5%

Q: And the remaining activity at 10 µM (ERBB4)?
A: 73%

Q: And the remaining activity at 10 µM (ERK7)?
A: 13.5%

Q: What about the remaining activity at 10 µM (FAK) of the same compound?
A: 52.5%

Q: What about the remaining activity at 10 µM (FGFR2) of the same compound?
A: 33.7%

Q: And the remaining activity at 10 µM (FGR)?
A: 54.6%

Q: And the remaining activity at 10 µM (HCK)?
A: 46.5%

Q: And the remaining activity at 10 µM (JAK1)?
A: 92.1%

Q: And the remaining activity at 10 µM (JAK2)?
A: 87%

Q: What about the remaining activity at 10 µM (KSR1) of the same compound?
A: 100%

Q: What about the remaining activity at 10 µM (KSR2) of the same compound?
A: 88.4%

Q: And the remaining activity at 10 µM (LYN)?
A: 65.7%

Q: What about the remaining activity at 10 µM (MAP4K2) of the same compound?
A: 58.4%

Q: And the remaining activity at 10 µM (MARK3)?
A: 83.1%

Q: And the remaining activity at 10 µM (MAST3)?
A: 39.3%

Q: And the remaining activity at 10 µM (MASTL)?
A: 103%

Q: And the remaining activity at 10 µM (MEK2)?
A: 176%

Q: What about the remaining activity at 10 µM (MRCKa) of the same compound?
A: 96.6%

Q: What about the remaining activity at 10 µM (MST1R) of the same compound?
A: 86.8%

Q: And the remaining activity at 10 µM (MST3)?
A: 47%

Q: And the remaining activity at 10 µM (NEK11)?
A: 94.3%

Q: What about the remaining activity at 10 µM (NEK3) of the same compound?
A: 86.6%

Q: What about the remaining activity at 10 µM (NEK9) of the same compound?
A: 90%

Q: And the remaining activity at 10 µM (P38-beta)?
A: 64.7%

Q: What about the remaining activity at 10 µM (PAK1) of the same compound?
A: 24.5%

Q: What about the remaining activity at 10 µM (PAK2) of the same compound?
A: 46.7%

Q: And the remaining activity at 10 µM (PLK2)?
A: 107%

Q: What about the remaining activity at 10 µM (PRKG1b) of the same compound?
A: 97.6%

Q: What about the remaining activity at 10 µM (ROCK1) of the same compound?
A: 97.2%

Q: And the remaining activity at 10 µM (SGK2)?
A: 84.7%

Q: What about the remaining activity at 10 µM (TTBK2) of the same compound?
A: 97.3%

Q: What about the remaining activity at 10 µM (TYRO3) of the same compound?
A: 22.4%
